For orientation: EC50 means the midpoint of the concentration-response curve.

The text below walks through data of patent US7772425B2, “Vitamin D receptor modulators” (Eli Lilly and Company, priority 2002, dated 2010).

Data set [1] relates to rat osteocalcin promoter. Put plainly: OCN (osteocalcin) promoter assay in RG-15 (ROS 17/2.8) cells. It counts as cell-based. As to conditions: 48 hr treatment, luciferase. As to the method: 3. The OCN (Osteocalcin) Promoter Assay
The OCN Promoter Assay is an indicator and marker for osteoporosis. […] Preferred assay results are less than 50 nM.
(3) Materials and Method for The OCN Promoter Assay:
The activation of osteocalcin by VDR ligands was evaluated in a rat osteoblast-like cell line RG-15 (ROS 17/2.8) stably expressing rat osteocalcin promoter fused with luciferase reporter gene. […] Confluent RG-15 cells maintained in DMEM/F-12 medium (3:1) containing 5% FBS, 300 μg/ml G418 and at 37° C. under 5% CO2/95% air atmosphere were trypsinized (0.25% trypsin) and plated into white opaque 96-well cell culture plates (25000 cells/well). After 24 hr, cells (in DMEM/F-12 medium+2% FBS) were treated with various concentrations of compounds, dissolved in DMSO. The final DMSO concentration remained at 0.01% (v/v). After 48 hr treatment, the medium was removed, cells were lysed with 50 μl of lysis buffer (From Luciferase reporter assay system, Roche Diagnostics, Indianapolis, Ind.) and assayed for luciferase activity using the Luciferase Reporter Gene Assay kit from Boehringer Mannheim as per manufacturer's specifications.

For data set [2], the system named is female DBF mice. The data set can be described thus: Mouse hypercalcemia assay. The data set is classed as in vivo. Particulars: orally via gavage for 6 days; serum ionized calcium 6 hours after last dosing. From the text: 4. The Mouse Hypercalcemia Assay
(4) Materials and Method for The Mouse Hypercalcemia Assay: […]

Values joined by “and” are separate entries in the source; they are usually repeats but may differ in a detail not shown here. Equal values may be shown once.

As for `CCC(CC)(c1ccc(OCC(O)C(C)(C)C)c(C)c1)c1ccc(C(=O)OC)c(C)c1` (racemic) [Ex. 1, 3′-[4-(2-hydroxy-3,3-dimethylbutoxy)-3-methylphenyl]-3′-[4-methoxycarbonyl-3-methylphenyl]pentane], the EC50 in data set [1] (Rattus norvegicus, 48 h) turned out to be 21 nM.
Still for that read-out and setting: the figure for `CCC(CC)(c1ccc(C(=O)O)c(C)c1)c1ccc(OCC(O)C(C)(C)C)c(Cl)c1` (racemic) [Ex. 38, 3′-[3-chloro-4-(2-hydroxy-3,3-dimethylbutoxy)phenyl]-3′-[3-methyl-4-(carboxy)phenyl]pentane] is 41 nM; for `CCC(CC)(c1ccc(CCC(O)C(C)(C)C)c(C)c1)c1ccc(C(=O)O)c(C)c1` (racemic) [Ex. 55, 3′-[4-(3-hydroxy-4,4-dimethylpentyl)-3-methylphenyl]-3′-[4-carboxyl-3-methylphenyl]pentane] it is 6 nM.
As to `CCC(CC)(c1ccc(OCC(O)C(C)(C)C)c(C)c1)c1ccc(C(=O)O)c(C)c1` (single isomer, unassigned) [Ex. 3A], in data set [2], the “Mouse Hypercal” value was 1000 µg/kg/day. Also, the concentration giving a half-maximal response (EC50) in data set [1] was 15 nM and 18 nM.
Consider `CCC(CC)(c1ccc(OCC(O)C(C)(C)C)c(C)c1)c1ccc(C(=O)O)c(C)c1` (single isomer, unassigned) [Ex. 3B], for which, in data set [2], the “Mouse Hypercal” value was 3000 µg/kg/day. In addition, the concentration for a half-maximal effect (EC50) in data set [1] is 57 nM and 83 nM.
As to `CCC(CC)(c1ccc(OCC(O)C(C)(C)C)c(C)c1)c1ccc(C(=O)OC)c(C)c1` (single isomer, unassigned) [Ex. 4A, 3′-[4-(2-hydroxy-3,3-dimethylbutoxy)-3-methylphenyl]-3′-[4-methoxycarbonyl-3-methylphenyl]pentane], the EC50 in data set [1] was 3 nM.
Regarding `CCC(CC)(c1ccc(OCC(O)C(C)(C)C)c(C)c1)c1ccc(C(=O)OC)c(C)c1` (single isomer, unassigned) [Ex. 4B, 3′-[4-(2-hydroxy-3,3-dimethylbutoxy)-3-methylphenyl]-3′-[4-methoxycarbonyl-3-methylphenyl]pentane], in data set [1], the concentration for a half-maximal effect (EC50) turned out to be 15 nM.
Turning to `CCC(CC)(c1ccc(OC(C)C(O)C(C)(C)C)c(C)c1)c1ccc(C(=O)O)c(C)c1` (single isomer, unassigned) [Ex. 12], the “Mouse Hypercal” value in data set [2] was 4000 µg/kg/day. The EC50 in data set [1] is 20 nM and 25 nM.
As to `CCC(CC)(c1ccc(OCC(O)C(C)(C)C)c(C)c1)c1ccc(C(=O)Nc2nnn[nH]2)c(C)c1` (single isomer, unassigned) [Ex. 12b, 3′-[4-(2-hydroxy-3,3-dimethylbutoxy)-3-methylphenyl]-3′-[4-(tetrazol-5-ylaminocarbonyl)-3-methylphenyl]pentane], in data set [2], the “Mouse Hypercal” value was 300 µg/kg/day. The 50% effective concentration (EC50) in data set [1] is 13 nM and 23 nM.
For `CCC(CC)(c1ccc(OCC(O)C(C)(C)C)c(C)c1)c1ccc(C(=O)NCCS(C)(=O)=O)c(C)c1` (single isomer, unassigned) [Ex. 15B, 4-{1-ethyl-1-[4-(2-hydroxy-3,3-dimethylbutoxy)-3-methylphenyl]propyl}-N-(2-methanesulfonylethyl)-2-methylbenzamide], the concentration for a half-maximal effect (EC50) in data set [1] stood at 163 nM.
Turning to `CCC(CC)(c1ccc(OCC(O)C(C)(C)C)c(C)c1)c1ccc(C(=O)Nc2nnn[nH]2)c(C)c1` (single isomer, unassigned) [Ex. 27, 3′-[4-(2-hydroxy-3,3-dimethylbutoxy)-3-methylphenyl]-3′-[4-(tetrazol-5-ylaminocarbonyl)-3-methylphenyl]pentane], the “Mouse Hypercal” value in data set [2] was 300 µg/kg/day. The EC50 in data set [1] was 13 nM and 23 nM.
For `CCC(CC)(c1ccc(OCC(O)C(C)(C)C)c(Cl)c1)c1ccc(C(=O)O)c(Cl)c1` (single isomer, unassigned) [Ex. 41, 3′-[3-chloro-4-(2-hydroxy-3,3-dimethyl-butoxy)phenyl]-3′-(3-chloro-4-carboxyphenyl)pentane], in data set [1], the EC50 was 421 nM.
For `CCC(CC)(c1ccc(OC[C@@H](O)C(C)(C)C)c(C)c1)c1ccc(C(=O)NCCS(C)(=O)=O)c(C)c1` (stereo in doubt) [Ex. 14, 4-{1-ethyl-1-[4-(2-hydroxy-3,3-dimethylbutoxy)-3-methylphenyl]propyl}-N-(2-methanesulfonylethyl)-2-methylbenzamide], the “Mouse Hypercal” value in data set [2] is 3000 µg/kg/day. Besides, the 50% effective concentration (EC50) in data set [1] (Rattus norvegicus, 48 h) was determined as 306 nM.
Turning to `CCC(CC)(c1ccc(OC[C@@H](O)C(C)(C)C)c(C)c1)c1ccc(C(=O)NCC(=O)O)c(C)c1` (stereo in doubt) [Ex. 24, (4-{1-ethyl-1-[4-(2-hydroxy-3,3-dimethylbutoxy)-3-methylphenyl]-propyl}-2-methylbenzoylamino)acetic acid], the EC50 in data set [1] (Rattus norvegicus, 48 h) was determined as 0.2 nM.
Consider `C=C1/C(=C\C=C2/CCC[C@]3(C)[C@@H]([C@H](C)CCCC(C)(C)O)CC[C@@H]23)C[C@@H](O)C[C@@H]1O` [AA, 1α,25-dihydroxyvitamin D3, reference compound], for which the “Mouse Hypercal” value in data set [2] was 0.06 µg/kg/day.
The same measure, in the same setting: then `CCC(CC)(c1ccc(OCC(O)CO)c(C)c1)c1ccc(OCC(O)C(C)(C)C)c(C)c1` (centres unmarked) [BB, 3-(4-{1-Ethyl-1-[4-(2-hydroxy-3,3-dimethyl-butoxy)-3-methyl-phenyl]-propyl}-2-methyl-phenoxy)-propane-1,2-diol, reference compound], with 20 µg/kg/day.
For the molecule `Cc1cc(C2(c3ccc(OCC(=O)C(C)(C)C)c(C)c3)CCCCC2)ccc1OCC(=O)C(C)(C)C` [CC, 1-(4-{1-[4-(3,3-Dimethyl-2-oxo-butoxy)-3-methyl-phenyl]-cyclohexyl}-2-methyl-phenoxy)-3,3-dimethyl-butan-2-one, reference compound], the 50% effective concentration (EC50) in data set [1] (Rattus norvegicus, 48 h) is above 1000 nM.
As for `CCC(CC)(c1ccc(OCC(=O)C(C)(C)C)c(C)c1)c1ccc(OC[C@H](O)C(C)(C)C)c(C)c1` [EE, reference compound], in data set [2], the “Mouse Hypercal” value was 1000 µg/kg/day. Further, the concentration giving a half-maximal response (EC50) in data set [1] (Rattus norvegicus, 48 h) was found to be 341 nM.
Turning to `CCC(CC)(c1ccc(CNCCS(C)(=O)=O)c(C)c1)c1ccc(OCC(=O)C(C)(C)C)c(C)c1` [Ex. 13, 1-[4-(1-ethyl-1-{4-[(2-methanesulfonyl-ethylamino)-methyl]-3-methyl-phenyl}-propyl)-2-methyl-phenoxy]-3,3-dimethyl-butan-2-one], the “Mouse Hypercal” value in data set [2] is 3000 µg/kg/day. In addition, the EC50 in data set [1] was 167 nM; in data set [1] (Rattus norvegicus, 48 h), 89 nM.
Regarding `CCC(CC)(c1ccc(OCC(=O)C(C)(C)C)c(C)c1)c1ccc(C(=O)NCCS(C)(=O)=O)c(C)c1` [Ex. 16, 4-{1-[4-(3,3-dimethyl-2-oxobutoxy)-3-methylphenyl]-1-ethylpropyl}-N-(2-methanesulfonylethyl)-2-methylbenzamide], the “Mouse Hypercal” value in data set [2] was above 5000 µg/kg/day. Also, the concentration for a half-maximal effect (EC50) in data set [1] (Rattus norvegicus, 48 h) was 35 nM.
On the same counts, the results for `CCC(CC)(c1ccc(CCC(=O)C(C)(C)C)c(C)c1)c1ccc(C(=O)O)c(C)c1` [Ex. 54, 3′-[4-(3-oxo-4,4-dimethylpentyl)-3-methylphenyl]-3′-[4-carboxyl-3-methylphenyl]pentane] are above 3000 µg/kg/day and 119 nM.
